This note sets out measurements from US20080255134A1 (Artesian Therapeutics, Inc., priority 2004, published 2008).

Assay [1] deals with human fetal cardiac fibroblasts. Description: Cyclic-AMP production by fluorescence (intrinsic sympathomimetic activity). It is filed as cell-based. To be noted: IBMX (750 μM) present; compared to isoproterenol or forskolin; any concentration tested. The protocol: The effect of Compound 8c on cyclic-AMP production was determined in human fetal cardiac fibroblasts by fluorescence, presented in FIG. 18 as [F−Fo)/Fo], mean±SEM, N=4. IBMX (750 μM) was present in all assays.

In assay [2] the target is T1, human recombinant beta-2 receptors (Homo sapiens, UniProt P07550).
T1 construct: expressed in transfected cells; host or cells: CHO-WT21 cells
T1 sequence (P07550 whole entry): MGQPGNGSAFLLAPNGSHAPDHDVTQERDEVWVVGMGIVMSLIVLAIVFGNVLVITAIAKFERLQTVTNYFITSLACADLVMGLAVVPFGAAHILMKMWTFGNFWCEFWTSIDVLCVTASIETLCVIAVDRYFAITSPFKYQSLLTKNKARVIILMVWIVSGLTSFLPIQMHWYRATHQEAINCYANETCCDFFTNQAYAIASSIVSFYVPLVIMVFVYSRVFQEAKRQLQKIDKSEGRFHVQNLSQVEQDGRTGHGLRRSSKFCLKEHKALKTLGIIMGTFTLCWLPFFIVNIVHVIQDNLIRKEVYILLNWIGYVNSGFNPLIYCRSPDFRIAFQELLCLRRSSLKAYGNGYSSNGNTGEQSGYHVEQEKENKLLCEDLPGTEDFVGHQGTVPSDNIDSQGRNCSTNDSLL
Description: β2-receptor radioligand binding, [125I] iodocyanopindolol, CHO-WT21 cells. The protocol: (§1) Non-selective β-adrenergic and β1-adrenergic radioligand binding assays were performed using rat cortical membranes; β2-adrenergic receptor assays were performed using membranes isolated from CHO cells expressing human, recombinant b2-adrenergic receptor; non-selective α1-adrenergic receptor assays were performed using rat forebrain membranes; and PDE3 binding assays were performed on human platelets. Values in percent illustrate percent inhibition at 1000 nM concentration.

The subject of assay [3] is isolated ventricular myocytes. Description: Sarcomere shortening (contractility) in isolated ventricular myocytes. It counts as cell-based, rabbit. The protocol: […] Isoproterenol, a potent β-Adrenergic agonist, can produce large increases in cardiac contraction, calcium transient amplitude, and the rates of relaxation (acceleration of relaxation or lusitropic effect). The effects of isoproterenol are then antagonized with different concentrations of a compound of the present invention.
Cardiac myocytes were digested from healthy white New Zealand male rabbits (3-5 lbs), with enzymatic digestion. Briefly, each animal is anesthetized with ketamine (50 mg/kg) and xylazine (6 mg/kg)-IM injection in hind limb. Once the animal was sedated (˜10-15 min), 0.1-0.3 ml of pentobarbital was injected into the ear vein. The heart was exposed by a cut just below the rib-cage and bilateral thoracotomy and removed rapidly ensuring that aorta remains intact. The heart was immediately placed in oxygenated NT with Ca^2+ placed on ice for rinsing the blood out, cleared from vessels and pericardium, cannulated and maintained at 37° C. The heart was retrogradedly perfused and tissue digested with collagenase and protease. Digested myocytes were subsequently stored in 0.1 mM Ca^2+ normal tyrodes for further analyses. Sarcomere length changes upon treatment with test compounds were recorded at 37° C. in the presence of 2 mM calcium and analyzed with an IonOptix system. Sarcomere length data was acquired for each myocyte over an average of 10 beats duration, at pacing rates of 1, 2, and 3 Hz. Basal percent sarcomere shortening and length-frequency relation of each myocyte was evaluated, and serve as a measure of cellular viability.
In vitro studies were performed using rabbit ventricular tissue, to examine the effects of Compounds 25 and 8c on myocyte contractility. New Zealand male rabbits (1.5-2.5 kg) were anesthetized with ketamine (50 mg/kg) and xylazine (6 mg/kg)-IM. The heart was exposed and removed rapidly to ensure that the aorta remained intact. The ventricular tissue was digested enzymatically. Sarcomere shortening was measured in the presence of 2 mM calcium at 37° C. using an IonOptix system; reported values were at 2 Hz pacing frequency.

In a further assay the target is α1-adrenergic receptor. Description: Non-selective α1-adrenergic receptor assay using rat forebrain membranes. It counts as binding. The protocol: as §1, with “The ability of Compounds 25 and 8c to inhibit PDE3 and β-adrenergic receptor activity was examined both in vitro and in vivo. […] Non-selective” for “Non-selective”

The inhibition is how much of the control response was suppressed. Usually IC50 stands for the concentration that inhibits the measured activity by half. Take `O=C1CCC(c2ccc(OCCNCC(O)COc3cccc4[nH]c5ccccc5c34)c(Cl)c2)=NN1` (racemic) [Compound 25, 6-(4-{2-[3-(9H-Carbazol-4-yloxy)-2-hydroxy-propylamino]-ethoxy}-3-chloro-phenyl)-4,5-dihydro-2H-pyridazin-3-one]: the “intrinsic sympathomimetic activity (cyclic-AMP production)” value in assay [1] was “neither Compound 8c nor Compound 25 possessed intrinsic sympathomimetic activity”. In addition, in assay [2] (at 100 nM), the inhibition at 0.1 µM is above 25%. In addition, the figures for the half-maximal inhibitory concentration (IC50) (in assay [2] (membranes from CHO cells expressing human recombinant β2-adrenergic receptor); against α1-adrenergic receptor) were 0.001 µM and 0.349 µM, respectively. The “blocking of isoproterenol effect on myocyte contractility” value in assay [3] (0.1 μM isoproterenol) is listed as “blocking the effects of 0.1 μM isoproterenol”. In addition, in assay [3] (2 mM calcium, 37° C., 2 Hz pacing frequency), the “contractility (sarcomere shortening) in isolated ventricular myocytes” value is reported as “increased contractility”.
